Data set [1] deals with STAT5 (Tyr694) phosphorylation in SET-2 cells. The data set is described as follows: STAT5 (Tyr694) phosphorylation cell based assay. The settings on record: Homo sapiens, pSTAT5, 2 hours, read-out: SET2 IC50. The protocol:
Example E. STAT5 (Tyr694) Phosphorylation Cell Based Assay
SET-2 cells was purchased from DSMZ (Germany). RPMI1640 medium, Fetal Bovine Serum and 384-white sold flat-bottom small volume plate were purchased from Thermo Fisher Scientific (Waltham, MA). Phospho-STAT5 (Tyr694) HTRF kit was purchased from Perkin Elmer (Waltham, MA).
SET-2 cells were cultured in RPMI media with 20% FBS at 37° C. in humidified incubator supplied with 5% CO2. On the day of assay, the cells were centrifuged to remove the culture media and resuspended with prewarmed RPMI with 10% FBS. Testing compounds were prepared by serial dilution in DMSO and 50 nL/well test compounds were transferred to the 384 white low volume cell culture plate (Greiner Bio-one) by ECHO liquid handler (Labcyte). The cells were then dispensed with Multidrop (Thermo Fisher, Waltham, MA) at 10 μL/well (7×10^6 cells/mL) with 0.5% DMSO in the final assay. After the treated cells were incubated for 2 hours at 37° C./5% CO2 incubator, 4 μL/well supplemented lysis buffer (100× blocking buffer diluted 25 fold in 4× lysis buffer, Perkin Elmer) were added and incubated at room temperature for 90 min on orbital shaker at 600 rpm. Phospho-STAT5 Cryptate antibody and Phospho-STAT5 d2 antibody (1:1 vol/vol) were premixed and diluted 20 fold with in the detection buffer (Perkin Elmer). 4 μL of the premixed antibody solution were added to each well followed with 24 hours incubation at room temperature on orbital shaker at 600 rpm. The product activity was determined by measuring the fluorescence at 620 nm and 665 nm on Pherastar microplate reader (BMG Labtech). A ratio is calculated (665/620) for each well. Wells with DMSO only served as the positive controls and wells containing high concentration of control compound were used as negative controls. IC50 determination was performed by fitting the curve of percent control activity versus the log of the compound concentration using the GraphPad Prism 7.0 software.

A further data set has as its system FLT3. The data set is described as follows: FLT3 enzymatic assay. Type of data set: biochemical. The protocol:
Example C. FLT3 Enzymatic Assay
The kinase assays were carried out at room temperature in assay buffer (HEPES 50 mM, pH 7.0, NaN3 0.02%, BSA 0.01%, Orthovanadate 0.1 mM, DTT 1 mM, MgCl2 10 mM) in a final volume of 10 μL. Testing compounds were prepared by serial dilution in DMSO and transferred to the plate wells by ECHO liquid handler (Labcyte) with 0.5% DMSO in the final assay. […]. Reactions were initiated by the addition of 5 μL ATP in assay buffer. The final 10 μL kinase reaction consists of 0.011 nM FLT3, 1 mM ATP, 500 nM TK Substrate-biotin and SEB reagent 62.5 nM in assay buffer. […] The plates were then sealed and centrifuged at 1800 rpm for 2 minutes. After 60 minutes incubation at room temperature, the product activity was determined by measuring the fluorescence at 620 nm and 665 nm on Pherastar microplate reader (BMG Labtech). A ratio is calculated (665/620 nm) for each well. Wells with DMSO only were served as the positive controls and wells containing no ATP were used as negative controls. IC50 determination was performed by fitting the curve of percent control activity versus the log of the compound concentration using the GraphPad Prism 7.0 software.

Data set [2] can be described thus: In vitro intrinsic clearance. Type of data set: in vitro ADME. The settings on record: human liver microsomes, 1 μM. The protocol: Example G. In Vitro Intrinsic Clearance Protocol
For in vitro metabolic stability experiments, test compounds were incubated with human liver microsomes at 37° C. The incubation mixture contained test compounds (1 μM), NADPH (2 mM), and human liver microsomes (0.5 mg protein/mL) in 100 mM phosphate buffer (pH 7.4). The mixture was pre-incubated for 2 min at 37° C. before the addition of NADPH. Reactions were commenced upon the addition of NADPH and quenched with ice-cold methanol at 0, 10, 20, and 30 min. Terminated incubation mixtures were analyzed using LC-MS/MS system. The analytical system consisted of a Shimadzu LC-30AD binary pump system and SIL-30AC autosampler (Shimadzu Scientific Instruments, Columbia, MD) coupled with a Sciex Triple Quad 6500+ mass spectrometer from Applied Biosystems (Foster City, CA). […] Mobile phase A consisted of 0.1% formic acid in water, and mobile phase B consisted of 0.1% formic acid in acetonitrile. The total LC-MS/MS runtime was 2.75 minutes with a flow rate of 0.75 mL/min. Peak area integrations and peak area ratio calculations were performed using Analyst software (version 1.6.3) from Applied Biosystems.
The in vitro intrinsic clearance, CLint, in vitro, was calculated from the t1/2 of test compound disappearance as CLint, in vitro=(0.693/t1/2)×(1/Cprotein), where Cprotein is the protein concentration during the incubation, and t1/2 was determined by the slope (k) of the log-linear regression analysis of the concentration versus time profiles; thus, t1/2=ln 2/k. The CLint, in vitro values were scaled to the in vivo values for human by using physiologically based scaling factors, hepatic microsomal protein concentrations (45 mg protein/g liver), and liver weights (21 g/kg body weight). The equation CLint=CLint, in vitro×(mg protein/g liver weight)×(g liver weight/kg body weight) was used. The in vivo hepatic clearance (CLH) was then calculated by using CLint and hepatic blood flow, Q (20 mL·min^−1·kg^−1 in humans) in the well-stirred liver model disregarding all binding from CLH=(Q×CLint)/(Q+CLint). The hepatic extraction ratio was calculated as CLH divided by Q.

The target in data set [3] is TRKA (Homo sapiens, UniProt P04629). The data set can be described thus: TRKA enzymatic assay. Type of data set: biochemical. The settings on record: 1 mM ATP. The protocol: (§1) Example I. TRKA Enzymatic Assay
(§2) The kinase assays were carried out at 24° C. temperature in assay buffer (HEPES 50 mM, pH 7.0, NaN3 0.02%, BSA 0.01%, Orthovanadate 0.1 mM, DTT 1 mM, MgCl2 10 mM) in a final volume of 10 μL. Testing compounds were prepared by serial dilution in DMSO and transferred to the plate wells by ECHO liquid handler (Labcyte) with 0.5% DMSO in the final assay. […]. Reactions were initiated by the addition of 5 μL ATP in assay buffer. The final 10 μL kinase reaction consists of 0.58 nM TRKA, 1 mM ATP, 500 nM TK Substrate-biotin and SEB reagent 62.5 nM in assay buffer. […] After 60 minutes incubation at room temperature, the product activity was determined by measuring the fluorescence at 620 nm and 665 nm on Pherastar microplate reader (BMG Labtech). A ratio is calculated (665/620 nm) for each well. Wells with DMSO only were served as the positive controls and wells containing no ATP were used as negative controls. IC50 determination was performed by fitting the curve of percent control activity versus the log of the compound concentration using the Gene data.

The test system of data set [4] is TRKA. The data set can be described thus: TRKA enzymatic assay. It counts as biochemical. The protocol:
as §1, §2

TRKA (Homo sapiens, UniProt P04629), sequence (P04629 33-796, species assumed): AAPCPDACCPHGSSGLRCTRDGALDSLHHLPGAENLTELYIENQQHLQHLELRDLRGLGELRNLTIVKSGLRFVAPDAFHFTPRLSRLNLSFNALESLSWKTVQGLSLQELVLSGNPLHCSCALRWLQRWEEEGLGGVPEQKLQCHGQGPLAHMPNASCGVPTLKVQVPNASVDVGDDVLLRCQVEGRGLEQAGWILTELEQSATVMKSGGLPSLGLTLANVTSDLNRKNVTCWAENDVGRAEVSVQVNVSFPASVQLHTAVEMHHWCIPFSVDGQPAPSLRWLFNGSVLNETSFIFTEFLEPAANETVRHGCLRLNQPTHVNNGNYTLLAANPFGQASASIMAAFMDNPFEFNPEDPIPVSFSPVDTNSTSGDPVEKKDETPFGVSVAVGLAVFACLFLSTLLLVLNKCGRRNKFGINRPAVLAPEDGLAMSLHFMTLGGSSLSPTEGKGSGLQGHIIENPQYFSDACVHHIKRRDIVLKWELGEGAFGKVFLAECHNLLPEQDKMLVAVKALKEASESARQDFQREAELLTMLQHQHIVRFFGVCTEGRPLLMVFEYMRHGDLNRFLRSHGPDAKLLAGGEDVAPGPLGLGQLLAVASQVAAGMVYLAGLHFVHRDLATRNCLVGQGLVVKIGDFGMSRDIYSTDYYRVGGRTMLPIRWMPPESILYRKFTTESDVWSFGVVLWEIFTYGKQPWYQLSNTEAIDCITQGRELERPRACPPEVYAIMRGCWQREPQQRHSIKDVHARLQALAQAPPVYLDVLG

In the case of `[2H]C([2H])([2H])n1c(=O)n([C@@H]2CC[C@@H](NC(=O)OC)C2)c2c3c(-c4ccc5c(c4)COC5(C)C)c(-c4cn(CC)nc4F)[nH]c3ncc21` [Example 20, Methyl ((1R,3R)-3-(8-(1,1-dimethyl-1,3-dihydroisobenzofuran-5-yl)-7-(1-ethyl-3-fluoro-1H-pyrazol-4-yl)-3-(methyl-d3)-2-oxo-3,6-dihydroimidazo[4,5-d]pyrrolo[2,3-b]pyridin-1(2H)-yl)cyclopentyl)carbamate], the IC50 was no more than 0.3 µM in data set [1] and greater than 2.5 µM against TRKA [3]. The “Selectivity FLT3/JH2 V617F” value in the data set on FLT3 was “****** (selectivity of >12500-fold)”. Further, in data set [2], the h-IntCL entry is recorded as “‡ ‡ (h-IntCL of ≥0.7 L/h/kg to ≤1 L/h/kg)”. In addition, the “Selectivity TRKA/JH2 V617F” value in the data set with TRKA [4] is “****** (selectivity of >12500-fold)”.

Regarding `[2H]C([2H])([2H])n1ncc2cc(-c3c(-c4cn(C)nc4OC)[nH]c4ncc5c(c34)n(C3CCOCC3)c(=O)n5C)ccc21` [B, reference compound], the IC50 is greater than 0.8 µM in data set [1] and greater than 2.5 µM against TRKA [3]. For the same compound, in the data set with FLT3, the “Selectivity FLT3/JH2 V617F” value is on record as “* (selectivity of ≤500-fold)”. The h-IntCL entry in data set [2] is “‡ ‡ (h-IntCL of ≥0.7 L/h/kg to ≤1 L/h/kg)”. Besides, in the data set with TRKA [4], the “Selectivity TRKA/JH2 V617F” value is recorded as “** (selectivity of >500-fold to ≤1500-fold)”.

With `[2H]C([2H])([2H])n1cc(-c2[nH]c3ncc4c(c3c2-c2ccc(F)cc2)n([C@@H]2CC[C@@H](NC(=O)OC)C2)c(=O)n4C([2H])([2H])[2H])c(F)n1` [Example 7, Methyl ((1R,3R)-3-(7-(3-fluoro-1-(methyl-d3)-1H-pyrazol-4-yl)-8-(4-fluorophenyl)-3-(methyl-d3)-2-oxo-3,6-dihydroimidazo[4,5-d]pyrrolo[2,3-b]pyridin-1(2H)-yl)cyclopentyl)carbamate], the results for the half-inhibitory concentration (IC50) (in data set [1]; at TRKA [3]) were 0.3 to 0.8 µM and greater than 2.5 µM, respectively. For the same compound, in the data set on FLT3, the “Selectivity FLT3/JH2 V617F” value is “**** (selectivity of >1750-fold to ≤5000-fold)”. Also, the h-IntCL result in data set [2] is listed as “‡ (h-IntCL of <0.7 L/h/kg)”. Also, the “Selectivity TRKA/JH2 V617F” value with TRKA [4] is listed as “***** (selectivity of >5000-fold to ≤12500-fold)”.

With `COC(=O)N[C@@H]1CC[C@@H](n2c(=O)n(C)c3cnc4[nH]c(-c5cn(C)nc5OC)c(-c5ccc(OC)c(F)c5)c4c32)C1` [Example 4, Methyl ((1R,3R)-3-(8-(3-fluoro-4-methoxyphenyl)-7-(3-methoxy-1-methyl-1H-pyrazol-4-yl)-3-methyl-2-oxo-3,6-dihydroimidazo[4,5-d]pyrrolo[2,3-b]pyridin-1(2H)-yl)cyclopentyl)carbamate], the half-maximal inhibitory concentration (IC50) in data set [1] was 0.3 to 0.8 µM; on TRKA [3], greater than 2.5 µM. The “Selectivity FLT3/JH2 V617F” value in the data set with FLT3 is “***** (selectivity of >5000-fold to ≤12500-fold)”. Further, in data set [2], the h-IntCL result was “‡ (h-IntCL of <0.7 L/h/kg)”. In addition, the “Selectivity TRKA/JH2 V617F” value in the data set on TRKA [4] was “***** (selectivity of >5000-fold to ≤12500-fold)”.

For `[2H]C([2H])([2H])n1c(=O)n([C@@H]2CC[C@@H](NC(=O)OC)C2)c2c3c(-c4ccc5c(c4)COC5(C)C)c(-c4cn(CC(F)F)nc4F)[nH]c3ncc21` [Example 12, Methyl ((1R,3R)-3-(7-(1-(2,2-difluoroethyl)-3-fluoro-1H-pyrazol-4-yl)-8-(1,1-dimethyl-1,3-dihydroisobenzofuran-5-yl)-3-(methyl-d3)-2-oxo-3,6-dihydroimidazo[4,5-d]pyrrolo[2,3-b]pyridin-1(2H)-yl)cyclopentyl)carbamate], the IC50 in data set [1] was no more than 0.3 µM; against TRKA [3], greater than 2.5 µM. Besides, the “Selectivity FLT3/JH2 V617F” value with FLT3 is given as “****** (selectivity of >12500-fold)”. In data set [2], the h-IntCL result is “‡ ‡ (h-IntCL of ≥0.7 L/h/kg to ≤1 L/h/kg)”. In the data set on TRKA [4], the “Selectivity TRKA/JH2 V617F” value was “****** (selectivity of >12500-fold)”.

For the compound `[2H]C([2H])([2H])n1cc(-c2[nH]c3ncc4c(c3c2-c2ccc3c(cnn3C(C)C)c2)n([C@@H]2CC[C@@H](NC(=O)OC)C2)c(=O)n4C([2H])([2H])[2H])c(F)n1` [Example 13, Methyl ((1R,3R)-3-(7-(3-fluoro-1-(methyl-d3)-1H-pyrazol-4-yl)-8-(1-isopropyl-1H-indazol-5-yl)-3-(methyl-d3)-2-oxo-3,6-dihydroimidazo[4,5-d]pyrrolo[2,3-b]pyridin-1(2H)-yl)cyclopentyl)carbamate], the concentration for half-maximal inhibition (IC50) was no more than 0.3 µM in data set [1] and greater than 2.5 µM on TRKA [3]. Moreover, the “Selectivity FLT3/JH2 V617F” value in the data set on FLT3 is given as “****** (selectivity of >12500-fold)”. For the same compound, the h-IntCL result in data set [2] is “‡ ‡ (h-IntCL of ≥0.7 L/h/kg to ≤1 L/h/kg)”. Further, the “Selectivity TRKA/JH2 V617F” value in the data set with TRKA [4] was “****** (selectivity of >12500-fold)”.

`COC(=O)N[C@@H]1CC[C@@H](n2c(=O)n(C)c3cnc4[nH]c(-c5cn(C)nc5OC)c(-c5cccc(F)c5)c4c32)C1` [Example 3, Methyl ((1R,3R)-3-(8-(3-fluorophenyl)-7-(3-methoxy-1-methyl-1H-pyrazol-4-yl)-3-methyl-2-oxo-3,6-dihydroimidazo[4,5-d]pyrrolo[2,3-b]pyridin-1(2H)-yl)cyclopentyl)carbamate]: the IC50 fell in the range of 0.3 to 0.8 µM in data set [1] and 1.25 to 2.5 µM at TRKA [3]. The “Selectivity FLT3/JH2 V617F” value in the data set with FLT3 is “**** (selectivity of >1750-fold to ≤5000-fold)”. Further, in data set [2], the h-IntCL result is given as “‡ ‡ (h-IntCL of ≥0.7 L/h/kg to ≤1 L/h/kg)”. Moreover, the “Selectivity TRKA/JH2 V617F” value in the data set on TRKA [4] is listed as “**** (selectivity of >1750-fold to ≤5000-fold)”.

Usually IC50 stands for the concentration that gives 50% inhibition.

The values are drawn from US12084430B2, “Tricyclic urea compounds as JAK2 V617F inhibitors” (Incyte Corporation, priority 2022, dated 2024).
